Experimental findings from patent US7351703B2, “Sulfonylamino carboxylic acid N-arylamides as guanylate cyclase activators” (Sanofi-Aventis Deutschland GmbH, priority 1999, dated 2008) are described below.

The target in series [1] is T1, soluble guanylate cyclase (sGC) (Bos taurus, UniProt P16068).
T1 construct: The sGC employed had been isolated from bovine lung; from tissue; host or cells: bovine lung
T1 sequence (P16068 1-619): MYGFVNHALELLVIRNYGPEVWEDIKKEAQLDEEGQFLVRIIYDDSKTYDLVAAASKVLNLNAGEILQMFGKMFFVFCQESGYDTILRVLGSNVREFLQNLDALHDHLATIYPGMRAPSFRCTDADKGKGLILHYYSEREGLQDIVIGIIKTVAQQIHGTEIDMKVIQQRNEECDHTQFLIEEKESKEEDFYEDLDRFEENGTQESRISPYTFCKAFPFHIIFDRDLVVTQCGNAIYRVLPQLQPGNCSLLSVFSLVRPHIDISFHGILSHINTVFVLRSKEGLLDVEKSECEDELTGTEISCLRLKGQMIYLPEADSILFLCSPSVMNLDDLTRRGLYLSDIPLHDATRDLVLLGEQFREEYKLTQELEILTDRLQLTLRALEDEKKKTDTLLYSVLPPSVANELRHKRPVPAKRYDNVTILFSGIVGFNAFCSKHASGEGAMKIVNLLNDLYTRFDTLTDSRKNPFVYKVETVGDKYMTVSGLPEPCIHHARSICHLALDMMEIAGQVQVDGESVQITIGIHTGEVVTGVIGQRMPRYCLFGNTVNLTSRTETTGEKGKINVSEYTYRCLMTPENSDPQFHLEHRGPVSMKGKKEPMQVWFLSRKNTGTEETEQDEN
T1 sequence (P19687 1-691 partner): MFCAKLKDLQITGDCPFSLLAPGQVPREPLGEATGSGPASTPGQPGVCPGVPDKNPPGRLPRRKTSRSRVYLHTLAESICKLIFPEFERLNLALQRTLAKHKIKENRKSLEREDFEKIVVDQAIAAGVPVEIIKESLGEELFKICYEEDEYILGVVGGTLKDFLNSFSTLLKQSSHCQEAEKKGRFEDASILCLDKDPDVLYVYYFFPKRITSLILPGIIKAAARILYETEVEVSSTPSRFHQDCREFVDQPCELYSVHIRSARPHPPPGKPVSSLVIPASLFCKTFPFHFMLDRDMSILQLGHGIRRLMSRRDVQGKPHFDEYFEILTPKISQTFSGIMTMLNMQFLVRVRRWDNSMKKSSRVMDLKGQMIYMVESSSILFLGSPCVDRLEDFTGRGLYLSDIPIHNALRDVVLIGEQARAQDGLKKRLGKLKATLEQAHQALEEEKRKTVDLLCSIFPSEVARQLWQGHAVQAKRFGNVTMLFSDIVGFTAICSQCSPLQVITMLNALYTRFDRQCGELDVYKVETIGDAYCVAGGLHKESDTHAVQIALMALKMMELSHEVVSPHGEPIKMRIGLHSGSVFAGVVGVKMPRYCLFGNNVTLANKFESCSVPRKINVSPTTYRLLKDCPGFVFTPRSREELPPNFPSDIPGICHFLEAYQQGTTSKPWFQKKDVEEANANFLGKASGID
The series is described as follows: Activation of soluble guanylate cyclase (cGMP enzyme immunoassay). The class given is biochemical. Conditions: sGC isolated from bovine lung, stimulation of basal enzyme activity vs solvent control. As to the method:
The activation of soluble guanylate cyclase (sGC), which catalyzes the conversion of guanosine triphosphate (GTP) to cyclic guanosine monophosphate (cGMP) and pyrophosphate, by the compounds according to the invention was quantified with the aid of an enzyme immunoassay (EIA) from Amersham. For this, the test substances were first incubated with sGC in microtiter plates and then the quantity of the resulting cGMP was determined.
The sGC employed had been isolated from bovine lung (see Methods in Enzymology, Volume 195, p. 377). The test solutions (100 μl per well) contained 50 mM triethanolamine (TEA) buffer (pH 7.5), 3 mM MgCl2, 3 mM reduced glutathione (GSH), 0.1 mM GTP, 1 mM 3-isobutyl-1-methylxanthine (IBMX), suitably diluted enzyme solution and the test substance or, in the control experiments, solvent. The test substances were dissolved in dimethyl sulfoxide (DMSO) and the solution was diluted with DMSO/water such that the final concentration c of test substance in the test batch had the value indicated below. The DMSO concentration in the test batch was 5% (v/v). The reaction was started by addition of the sGC. The reaction mix was incubated at 37° C. for 15 to 20 minutes and then stopped by ice-cooling and addition of the stop reagent (50 mM EDTA, pH 8.0). An aliquot of 50 μl was taken and employed for the determination of the cGMP content using the acetylation protocol of the Amersham cGMP EIA kit. The absorption of the samples was measured at 450 nm (reference wavelength 620 nm) in a microtiter plate reading apparatus. The cGMP concentration was determined by means of a calibration curve, which was obtained under the same experimental conditions. The activation of the sGC by a test substance is indicated as n-fold stimulation of the basal enzyme activity which was found in the control experiments (with solvent instead of test substance) (calculated according to the formula n-fold stimulation=[cGMP]test substance/[cGMP]control).

The melting point is the temperature of the solid-liquid transition. With `CCOC(=O)c1ccc(NC(=O)c2cc(Cl)ccc2NS(=O)(=O)c2ccc(Cl)cc2)cc1` [Example 14, Ethyl 4-(5-chloro-2-(4-chlorophenylsulfonylamino)benzoylamino)benzoate], the melting point was found to be 185 °C. The n-fold stimulation in series [1] (concentration c 100 μM) is reported as 1.7 n-fold.
For `O=C(Nc1ccc(Oc2ccc(Cl)cc2)cc1)c1cc(Cl)ccc1NS(=O)(=O)c1ccc(Cl)cc1` [Example 6, 5-Chloro-2-(4-chlorophenylsulfonylamino)-N-(4-(4-chlorophenoxy)phenyl)benzamide], in that order: 207 °C and 4.2 n-fold.
In turn, `O=C(Nc1ccc2ccccc2c1)c1cc(Cl)ccc1NS(=O)(=O)c1ccc(Cl)cc1` [Example 12, 5-Chloro-2-(4-chlorophenylsulfonylamino)-N-(2-naphthyl)benzamide] gave a melting point of 211 °C. The same compound returned a n-fold stimulation in series [1] (concentration c 25 μM) of 2.8 n-fold.
`O=C(Nc1ccc2ccccc2c1)c1ccccc1NS(=O)(=O)c1ccc(Cl)cc1` [Example 3, 2-(4-Chlorophenylsulfonylamino)-N-(2-naphthyl)benzamide] had a melting point of 189 °C. In series [1] (concentration c 100 μM), this compound came in with a n-fold stimulation of 2 n-fold.
`CS(=O)(=O)N(c1ccc(NC(=O)c2cc(Cl)ccc2NS(=O)(=O)c2ccc(Cl)cc2)cc1)S(C)(=O)=O` [Example 15, 5-Chloro-2-(4-chlorophenylsulfonylamino)-N-(4-(bismethylsulfonylamino)phenyl)benzamide] came in with a melting point of 235 °C. The same compound yielded a n-fold stimulation in series [1] (concentration c 10 μM) of 9.9 n-fold.
`COc1ccc(NC(=O)c2cc(Cl)ccc2NS(=O)(=O)c2ccc(Cl)cc2)cc1` [Example 11, 5-Chloro-2-(4-chlorophenylsulfonylamino)-N-(4-methoxyphenyl)benzamide] gave a melting point of 190 °C. The compound also registered a n-fold stimulation in series [1] (concentration c 100 μM) of 1.8 n-fold.
For `O=C(Nc1cc(Cl)cc(Cl)c1)c1cc(Cl)ccc1NS(=O)(=O)c1ccc(F)cc1` [Example 13, 5-Chloro-2-(4-fluorophenylsulfonylamino)-N-(3,5-dichlorophenyl)benzamide], in that order: 250 °C and 1.8 n-fold.
In turn, `O=C(Nc1ccc(Br)cc1)c1cc(Cl)ccc1NS(=O)(=O)c1ccc(Cl)cc1` [Example 9, 5-Chloro-2-(4-chlorophenylsulfonylamino)-N-(4-bromophenyl)benzamide] displayed a melting point of 210 °C. This compound also showed a n-fold stimulation in series [1] (concentration c 100 μM) of 1.6 n-fold.
For `O=C(Nc1ccc(Oc2ccccc2)cc1)c1ccccc1NS(=O)(=O)c1ccc(Cl)cc1` [Example 7, 2-(4-Chlorophenylsulfonylamino)-N-(4-phenoxyphenyl)benzamide], the melting point amounted to 143 °C. In addition, the n-fold stimulation in series [1] (concentration c 100 μM) turned out to be 2.8 n-fold.
As for `CC(C)c1ccc(NC(=O)c2cc(Cl)ccc2NS(=O)(=O)c2ccc(Cl)cc2)cc1` [Example 16, 5-Chloro-2-(4-chlorophenylsulfonylamino)-N-(4-isopropylphenyl)benzamide], the melting point amounted to 188 °C. The n-fold stimulation in series [1] (concentration c 100 μM) is listed as 4.1 n-fold.
In the case of `O=C(Nc1ccc(OCc2ccccc2)cc1)c1cc(Cl)ccc1NS(=O)(=O)c1ccc(Cl)cc1` [Example 23, 5-Chloro-2-(4-chlorophenylsulfonylamino)-N-(4-(benzyloxy)phenyl)benzamide], the melting point was found to be 191 °C. Moreover, in series [1] (concentration c 25 μM), the n-fold stimulation came out at 2.2 n-fold.
Consider `O=C(Nc1cccc(C(F)(F)F)c1)c1cc(Br)ccc1NS(=O)(=O)c1ccc(Cl)cc1` [Example 2, 5-Bromo-2-(4-chlorophenylsulfonylamino)-N-(3-trifluoromethylphenyl)benzamide], for which the melting point was 220 °C. This compound had a n-fold stimulation in series [1] (concentration c 100 μM) of 9.2 n-fold.
The compound `O=C(Nc1cccc(C(F)(F)F)c1)c1ccccc1NS(=O)(=O)c1ccc(Cl)cc1` [Example 1, 2-(4-Chlorophenylsulfonylamino)-N-(3-trifluoromethylphenyl)benzamide] displayed a melting point of 169 °C. Besides, the n-fold stimulation in series [1] (concentration c 100 μM) came out at 3.6 n-fold.
